One molecule from patent EP1333824B1, “TREATMENT OF SEXUAL DYSFUNCTION WITH BOMBESIN RECEPTOR ANTAGONISTS” (Warner-Lambert Company LLC, priority 2000, dated 2002) can be followed below.

One series has as its system conscious male rat. Kind of series: Penile intracavernosal pressure in the conscious male rat (telemetry). The class given is in vivo. The procedure: In addition to treating women with FSD, bombesin antagonists will be useful in treating male erectile dysfunction (MED. Both the non-selective BB1/2 antagonists (Compound 1; 10mg/kg sc) and the selective BB1 receptor antagonist (Compound 3; 15mg/kg sc) is pro-erectile in a conscious rat model of penile erection (Figures 24 and 25). Erectile responses were recorded by measuring intracavernosal pressure using surgically implanted telemetric device. The specific details the surgical procedures, data acquisition and analysis can be found in detail in Bemabe 1999.
Compound 1 and compound 3 were dissolved in 50% β-cyclodextrin in saline. They were administered at a dose of 15mg/kg subcutaneously (sc). […] These increases equate to penile erection. Both Compounds 1 and 3 induced a number of erections in a similar manner to those observed with apomorphine or melanotan-II - both of which are clinically proven agents that are effective in the treatment of MED. Moreover the amplitude of the increases observed were similar to those observed with apomorphine or melanotan-II. The mechanism of action is thought to be similar to the effects on female genital flow ie CNS potentiation of the descending neuronal pathways that control penile erection.

Another series deals with Sprague Dawley male rats. Put plainly: Sexual behaviour of fluoxetine-induced sexually dysfunctional male rats. Conditions: fluoxetine 20mg/kg i.p. 3 days (vs vehicle+vehicle). The series is classed as in vivo, rat. The protocol:
Sprague Dawley male rats (Charles River, UK) were kept, 4 rats per cage, in a reversed lighting regime (12:12 hours, lights off at 5.00 h), with free access to food and water. The rats were pre-selected by being presented with a receptive female at 4 days intervals, i.e. every third day (having 2 clear days between presentations) until completing 6-7 trials of baseline determination. The animals showing consistently vigorous behaviour (ejaculatory latencies <300s) were chosen for further experiments. Animals were treated for 3 consecutive days with either vehicle (water) or fluoxetine (20mg/kg, i.p., in a 2ml/kg dosing volume). […] All treatments were administered i.p. in a 1ml/kg volume, 1h before tests.
For all the sexual behaviour tests, the males were placed in an observation arena (50-60 cm diameter), starting 5 hours into the dark cycle and observed under red illumination. Three to 4 minutes after placing the male in the arena, a receptive female (ovariectomised, bearing a 7 mm Silastic implant of oestradiol benzoate) was introduced to the arena and the following parameters noted: Mount Latency: time (in seconds) taken between introduction of female and first mount. A maximum time of 15 minutes (900 seconds) was allowed, and the test terminated if no mounts were recorded within that time (Figure 16), Ejaculation Latency: time (in seconds) taken from first intromission to ejaculation. A maximum time of 30 minutes (1800 seconds) was given, and the test terminated if ejaculation was not achieved in that time (Figure 17), Percentage of males achieving ejaculation within 30 minutes was calculated (Figure 18).
A one-way ANOVA followed by Dunnett's t test was used to compare the fluoxetine+vehicle group and other groups for mount and ejaculatory latencies. Percentage of animals ejaculating was analysed using a Chi-square test followed by Fisher's test. (*: P<0.05, **: P<0.01, ***: P<0.001; n=15-19).

The test system of series [1] is Ovariectomised adult female Sprague Dawley rats. Kind of series: Female rat sexual proceptivity test (time investigating male vs female stimulus). The series is classed as in vivo. The protocol: Ovariectomised adult female Sprague Dawley rats (180-200g, from Charles River) were housed in groups of 6 in a reversed lighting system of 12h light:dark (lights off 7.00-19.00h). Two weeks after ovariectomy they were used for sexual activity tests. The experiments started at least 5h into the dark period.
Tests were carried out in a circular arena of 90cm diameter, surrounded by a 30cm high wall. Two small cages with wire-mesh front (15x15cm) are fixed into the wall such that the front of the cage is «flush» with the wall and the 2 cages are opposite each other. They contained two stimuli animals: an intact sexually experienced male and a receptive female (ovariectomised, primed with 5µg oestradiol benzoate dissolved in corn oil and injected subcutaneously 48 hours before the test and with 0.5 mg of progesterone four hours before the test). Sexually naive test and control animals were used. Forty eight hours before the tests, both the test and control animals were primed with 5µg oestradiol benzoate. For animals used as positive controls, progesterone (0.5mg/0.1ml) was dissolved in corn oil and administered subcutaneously (s.c.), 4h before the test. Test and control animals were introduced one at a time for 10 minute periods into the arena. During the 10min test, the time that the test or positive control animal spent investigating each stimulus animal was noted. The arena was thoroughly cleaned between animals. The position of the male/female stimuli boxes was randomised between animals, in order to avoid place preference. The difference in the percentage of time spent investigating the male minus the female stimuli was calculated, out of the total time spent investigating stimuli animals. […]
Ovariectomised adult female Sprague Dawley rats (180-200g) were housed in groups of 5 in a reversed lighting system of 12h light:dark (lights off 5.00-17.00h). They were used for the experiments at least two weeks after ovariectomy. Forty eight hours before tests, the animals were primed with oestradiol benzoate (5µg/0.1ml in corn oil, s.c.). On day 1, progesterone (0.5mg/0.1ml, in corn oil, s.c.) was administered to one of the groups 4h before tests, as a positive control. […] The test lasted 10 minutes and was carried out as described before. The difference in the percentage of time spent investigating the male minus the female stimuli was calculated, out of the total time spent investigating stimuli animals. Animals were submitted to a test on day 1 and on day 15. […] On day 15 the test took place again, as described for day 1. […]

[2] abbreviates: day 4 Compound (1) 15mg/kg or yohimbine 2mg/kg i.p. 1h before tests (vs fluoxetine+vehicle).

As to `COc1ccc(C2(CNC(=O)[C@](C)(Cc3c[nH]c4ccccc34)NC(=O)Nc3ccc([N+](=O)[O-])cc3)CCCCC2)nc1` [Compound (1), (S) 3-(1H-Indol-3-yl)-N-[1-(5-methoxy-pyridin-2-yl)-cyclohexyl-methyl]-2-methyl-2-[3-(4-nitro-phenyl)-ureido]-propionamide], the “erectile response (penile erection)” value in the series on conscious male rat (Compound 1 10mg/kg sc, Compound 3 15mg/kg sc) is “pro-erectile”. In addition, the intracavernosal pressure entry with conscious male rat (one hour after 10mg/kg sc Compound 1, 45 minutes after 15mg/kg sc compound 3) is given as “significant increases in intracavernosal pressure”. Further, the Ejaculation latency result in the series with Sprague Dawley male rats (setting [2]) is recorded as “significantly decreased”. For the same molecule, the Mount latency result in the series on Sprague Dawley male rats (setting [2]) is on record as “significantly decreased”. The “percentage of animals ejaculating” value in the series on Sprague Dawley male rats (within 30 minutes, day 4 Compound (1) 15mg/kg or yohimbine 2mg/kg i.p. (vs fluoxetine+vehicle)) was “increasing the percentage of animals ejaculating”. Also, the “percentage of time spent investigating the male stimulus” value in series [1] (Example 1, i.p., dose-dependent 3mg/kg-10mg/kg, 1h before tests, vs vehicle) is “increased the percentage of time spent investigating the male stimulus”; in series [1] (Example 4, i.c.v., dose-dependent 3-30µg/rat, 10min before tests), “increased the percentage of time spent investigating the male stimulus”. Also, the “proceptivity, day 1” value in series [1] (Example 3, Compound (1) 15mg/kg i.p. 1h before test, progesterone 0.5mg/0.1ml s.c. 4h before, vs vehicle, P<0.01) is given as “stimulatory effect on proceptivity”. The “body weight or general behaviour” value in series [1] (Example 3, repeated daily administration 15mg/kg i.p. over 15 days) is reported as “no changes in body weight or general behaviour”. For the same molecule, in series [1] (Example 4, i.c.v., 3-30µg/rat, 10min before tests), the “MED (increase in percentage of time spent investigating the male stimulus)” value amounted to 10 µg. Further, in series [1] (Example 5, Compound (1) 15mg/kg i.p. 1h before i.c.v. NMB 100ng, blockade not total at this dose), the “antagonism of the inhibitory effect of NMB on proceptivity” value is recorded as “prevented the inhibitory effect of NMB”.
